The values below come from patent publication US20230233484A1, “USE OF VITAMIN K IN PREVENTING OR COU[…]-19 DISEASE AND DIAGNOSTIC TEST TO ESTIMATE THE RISK OF […] DISEASE OR MORTALITY BY COVID-19” (EMPHYSEMA SOLUTIONS BV, priority 2020, published 2023).

Data set [1] concerns Covid-19. As to the kind of experiment: Ongoing intervention trial of vitamin K administration in Covid-19 patients. Format: in vivo. As to conditions: twelve Covid-19 patients have received treatment. The source says:
(§1) Procoagulant prothrombin activation by vitamin K remained preserved in the majority of Covid-19 patients. Impaired MGP activation was linked to accelerated elastic fiber degradation and premorbid vascular calcifications. About fifty percent of total anticoagulant protein S is activated extra-hepatically by vitamin K, and this activation is likely also impaired during Covid-19. Given the fact that procoagulant activity remains intact, this is compatible with the increased thrombogenicity that is frequently observed in severe Covid-19. Based on our findings we expect that increasing MGP and protein S activity by vitamin K administration will considerably improve Covid-19 outcomes. An intervention trial to confirm this hypothesis is currently ongoing.

Another data set concerns dp-ucMGP. Particulars: vitamin K supplementation; cited from earlier work.
Data set [2] concerns Covid-19. The data set can be described thus: Cohort of hospitalized COVID-19 patients treated with vitamin K, compared with previous COVID-19 cohorts. Type of data set: in vivo. Particulars: hospitalized COVID-19 cohort treated with vitamin K vs previous COVID-19 cohorts from the same hospital.
Source text: as §1

Sequence of dp-ucMGP (P08493 20-96): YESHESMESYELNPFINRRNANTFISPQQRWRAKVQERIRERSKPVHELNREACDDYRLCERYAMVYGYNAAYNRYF

With vitamin K, in the data set with Covid-19 [1], the safety issues entry is listed as “no unexpected safety issues”. Besides, in the data set on dp-ucMGP, the “effect on dp-ucMGP levels” value is reported as “reducing effect”. In the data set on Covid-19 [2], the ICU admission rate result is listed as “significantly lower” and the mortality entry is on record as “significantly lower”.
